The values that follow come from patent US20240270810A1, “PREPARATION AND APPLICATION OF POLYPEPTIDE” (GUANGDONG RAYNOVENT BIOTECH CO., LTD., priority 2021, published 2024).

For orientation: Cmax means the maximum level reached in the sampled fluid or tissue. As a reminder, the AUC(0-t) is the area under the concentration-time curve up to a stated or last time point. Usually Tmax stands for the time at which the peak concentration occurs. For orientation: half-life means the time in which the quantity being followed falls by half. Low values mean rapid decline, high ones slow decline. The EC50 is the midpoint of the concentration-response curve. High values mean weaker potency, low ones greater potency.

Data set [1] is described as follows: in vivo. Also on record: species or system SD rats. Particulars: rat, sc, 0.048 mg/kg; for Cmax: Sprague-Dawley. As for the experimental part: The pharmacokinetic characteristics in rodent animals following subcutaneous injection of the compounds were tested using standard protocols. In the experiment, the candidate compounds were formulated into clear solution, which was administered to rats by single subcutaneous injection (SC, 0.048 mpk). The vehicle for injection was citrate buffer solution (20 mM, pH=7). The whole blood was collected and processed to get the plasma. The drug concentration was analyzed by LC-MS/MS, and the pharmacokinetic parameters were calculated using Phoenix WinNonlin software.

Data set [2] can be described thus: in vivo. The following applies: cynomolgus monkey, sc, 0.02 mg/kg. Details: species or system Cynomolgus macaques. Here is the method: The pharmacokinetic characteristics in mammals following intravenous injection and subcutaneous injection of the compounds were tested using standard protocols. In the experiment, the candidate compounds were formulated into clear solution, which was administered to Cynomolgus macaques by single subcutaneous injection (SC, 0.02 mpk). The vehicle for subcutaneous injection was citrate buffer solution (20 mM, pH=7). The whole blood was collected and processed to get the plasma. The drug concentration was analyzed by LC-MS/MS, and the pharmacokinetic parameters were calculated using Phoenix WinNonlin software.

The nature of data set [3]: in vivo. Also on record: species or system C57BL/6 mice. The following applies: sc, 0.048 mg/kg. Here is the method: The pharmacokinetic characteristics in rodent animals following subcutaneous injection of the compounds were tested using standard protocols. In the experiment, the candidate compounds were formulated into clear solution, which was administered by subcutaneous injection (SC, 0.048 mpk). The vehicle for subcutaneous injection was citrate buffer solution (20 mM, pH=7). The whole blood was collected and processed to get the plasma. The drug concentration was analyzed by LC-MS/MS, and the pharmacokinetic parameters were calculated using Phoenix WinNonlin software.

The target of the next data set is T1, GIPR (Homo sapiens, UniProt P48546).
T1 construct: host or cells: CHO
T1 sequence (P48546 22-466): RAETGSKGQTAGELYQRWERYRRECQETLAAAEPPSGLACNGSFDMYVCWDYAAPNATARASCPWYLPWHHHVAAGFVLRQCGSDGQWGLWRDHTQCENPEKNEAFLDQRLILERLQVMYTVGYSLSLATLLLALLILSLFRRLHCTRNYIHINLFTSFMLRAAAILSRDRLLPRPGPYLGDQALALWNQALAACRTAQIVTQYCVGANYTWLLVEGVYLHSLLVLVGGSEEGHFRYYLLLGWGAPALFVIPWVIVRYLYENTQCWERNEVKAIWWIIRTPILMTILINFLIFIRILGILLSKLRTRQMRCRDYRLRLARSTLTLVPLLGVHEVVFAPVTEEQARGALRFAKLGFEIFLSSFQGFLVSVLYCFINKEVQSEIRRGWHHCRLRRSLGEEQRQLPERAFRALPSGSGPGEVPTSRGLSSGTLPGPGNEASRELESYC
The experiment in a line: In vitro GIPR agonistic activity test (cAMP kit). The format is cell-based. Particulars: CHO host cells.

The nature of data set [4]: in vitro. Type of data set: in vitro ADME. The following applies: mouse, plasma. As for the experimental part: (§1) To study the stability of the test compounds in the plasma of normal mice. • 1. Before the experiment, the clotted frozen plasma was thawed in a water bath at 37° C. The resulting plasma was centrifuged at 4000 rpm for 5 min. If there is blood clot, remove the clot and adjust the pH to 7.4±0.1. • 2. The test compound solution was prepared by diluting the compounds with DMSO to prepare a solution of 100 μM. • 3. 98 μL of plasma, as a blank control, was added with 2 μL of the test compound solution (100 μM) to get a mixed solution with a final concentration of 2 μM, which was incubated in a water bath at 37° C. • 4. 100 μL of H3PO4 solution and 800 μL of stop solution (a 100% solution of 200 ng/mL tolbutamide and 200 ng/ml labetalol in methanol) were respectively added at each time point (0, 10, 30, 60, and 120 min) to precipitate protein, which was then mixed thoroughly. • 5. The samples were centrifuged at 4000 rpm for 20 min, and 100 μL of supernatant was taken from each well for LC-MS/MS analysis.

Data set [5] is described as follows: in vitro. Particulars: human, plasma. Type of data set: in vitro ADME. As for the experimental part: as §1, with “•” for “To study the stability of the test compounds in the plasma of normal mice. •”

A value given as a limit tells only on which side of the number the result lay.

For the molecule `CC[C@H](C)[C@H](NC(=O)[C@H](CC(C)C)NC(=O)[C@H](Cc1c[nH]c2ccccc12)NC(=O)[C@H](CCC(=O)O)NC(=O)[C@@H](NC(=O)[C@H](Cc1ccccc1)NC(=O)[C@H](C)NC(=O)[C@@H]1CCCCNC(=O)CN(C(=O)COCCOCCNC(=O)COCCOCCNC(=O)CC[C@H](NC(=O)CCCCCCCCCCCCCCCCCCC(=O)O)C(=O)O)CC(=O)NCCCC[C@H](NC(=O)[C@H](CCCCN)NC(=O)[C@H](CC(=O)O)NC(=O)[C@H](CC(C)C)NC(=O)C(C)(C)NC(=O)[C@@H](NC(=O)[C@H](CO)NC(=O)[C@H](Cc2ccc(O)cc2)NC(=O)[C@H](CC(=O)O)NC(=O)[C@H](CO)NC(=O)[C@@H](NC(=O)[C@H](Cc2ccccc2)NC(=O)[C@@H](NC(=O)CNC(=O)[C@H](CCC(=O)O)NC(=O)C(C)(C)NC(=O)[C@@H](N)Cc2ccc(O)cc2)[C@@H](C)O)[C@@H](C)O)[C@@H](C)CC)C(=O)N[C@@H](C)C(=O)N[C@@H](CCC(N)=O)C(=O)N1)C(C)C)C(=O)N[C@@H](C)C(=O)NCC(=O)NCC(=O)N1CCC[C@H]1C(=O)N[C@@H](CO)C(=O)N[C@@H](CO)C(=O)NCC(=O)N[C@@H](C)C(=O)N1CCC[C@H]1C(=O)N1CCC[C@H]1C(=O)N1CCC[C@H]1C(=O)N[C@@H](CO)C(N)=O` [WX-005], the highest concentration (Cmax) in the data set “in vivo [1]” was found to be 28 nM; in “in vivo [2]” it was 36 nM; in the data set “in vivo [3]” (C57BL/6, mouse), 79 nM. In addition, the exposure AUC(0-t) was 1.15 µM·h in “in vivo [1]”, 4.47 µM·h in the data set “in vivo [2]” and 2.24 µM·h in the data set “in vivo [3]” (mouse). Besides, the time to peak (Tmax) in “in vivo [1]” is 16 h; in the data set “in vivo [2]” it was 24 h; in “in vivo [3]” (mouse), 12 h. Further, the half-life in “in vivo [1]” was 21 h; in the data set “in vivo [2]”, 100 h; in the data set “in vivo [3]” (mouse), 16 h; in “in vitro [4]” it was above 4.82 h; in “in vitro [5]” it was above 4.82 h. Also, the concentration giving a half-maximal response (EC50) was 19.3 nM at GIPR (with 1% HSA) and 0.16 nM on GIPR (without 1% HSA).

On to `CC[C@H](C)[C@H](NC(=O)[C@H](CC(C)C)NC(=O)[C@H](Cc1c[nH]c2ccccc12)NC(=O)[C@H](CCC(=O)O)NC(=O)[C@@H](NC(=O)[C@H](Cc1ccccc1)NC(=O)[C@H](CCC(=O)O)NC(=O)[C@@H]1CCCCNC(=O)CN(C(=O)COCCOCCNC(=O)COCCOCCNC(=O)CC[C@H](NC(=O)CCCCCCCCCCCCCCCCCCC(=O)O)C(=O)O)CC(=O)NCCCC[C@H](NC(=O)[C@H](CCCCN)NC(=O)[C@H](CC(=O)O)NC(=O)[C@H](CC(C)C)NC(=O)C(C)(C)NC(=O)[C@@H](NC(=O)[C@H](CO)NC(=O)[C@H](Cc2ccc(O)cc2)NC(=O)[C@H](CC(=O)O)NC(=O)[C@H](CO)NC(=O)[C@@H](NC(=O)[C@H](Cc2ccccc2)NC(=O)[C@@H](NC(=O)CNC(=O)[C@H](CCC(=O)O)NC(=O)C(C)(C)NC(=O)[C@@H](N)Cc2ccc(O)cc2)[C@@H](C)O)[C@@H](C)O)[C@@H](C)CC)C(=O)N[C@@H](C)C(=O)N[C@@H](CCC(N)=O)C(=O)N1)C(C)C)C(=O)N[C@@H](C)C(=O)NCC(=O)NCC(=O)N1CCC[C@H]1C(=O)N[C@@H](CO)C(=O)N[C@@H](CO)C(=O)NCC(=O)N[C@@H](C)C(=O)N1CCC[C@H]1C(=O)N1CCC[C@H]1C(=O)N1CCC[C@H]1C(=O)N[C@@H](CO)C(N)=O` [WX-009], for which the Tmax in “in vivo [1]” (SD) came to 20 h; in “in vivo [2]” it was 24 h; in “in vivo [3]” (C57BL/6, mouse) it was 12 h. In addition, the highest concentration (Cmax) in “in vivo [1]” is 24 nM; in “in vivo [2]”, 37 nM; in the data set “in vivo [3]” (C57BL/6, mouse), 59 nM. At GIPR (without 1% HSA), this molecule gave a 50% effective concentration (EC50) of 0.074 nM. Besides, the half-life at 2 μM is above 3.98 h in “in vitro [4]” (pH 7.4) and above 4.82 h in “in vitro [5]” (pH 7.4).
